Reference: patent US20240197728A1, “METHODS AND PHARMACEUTICAL COMPOSITIONS FOR TREATING REFRACTORY EPILEPSY” (INSERM (INSTITUT NATIONAL DE LA SANTÉ ET DE LA RECHERCHE …, priority 2021, published 2024)

Biological target: T1, recombinant Flag-tagged KCC2 (Rattus norvegicus, UniProt Q63633)
T1 construct: expressed in transfected cells; host or cells: primary rat hippocampal neurons, transfected at DIV 13-14 with Transfectin
T1 sequence (Q63633 1-1116 isoform Q63633-2): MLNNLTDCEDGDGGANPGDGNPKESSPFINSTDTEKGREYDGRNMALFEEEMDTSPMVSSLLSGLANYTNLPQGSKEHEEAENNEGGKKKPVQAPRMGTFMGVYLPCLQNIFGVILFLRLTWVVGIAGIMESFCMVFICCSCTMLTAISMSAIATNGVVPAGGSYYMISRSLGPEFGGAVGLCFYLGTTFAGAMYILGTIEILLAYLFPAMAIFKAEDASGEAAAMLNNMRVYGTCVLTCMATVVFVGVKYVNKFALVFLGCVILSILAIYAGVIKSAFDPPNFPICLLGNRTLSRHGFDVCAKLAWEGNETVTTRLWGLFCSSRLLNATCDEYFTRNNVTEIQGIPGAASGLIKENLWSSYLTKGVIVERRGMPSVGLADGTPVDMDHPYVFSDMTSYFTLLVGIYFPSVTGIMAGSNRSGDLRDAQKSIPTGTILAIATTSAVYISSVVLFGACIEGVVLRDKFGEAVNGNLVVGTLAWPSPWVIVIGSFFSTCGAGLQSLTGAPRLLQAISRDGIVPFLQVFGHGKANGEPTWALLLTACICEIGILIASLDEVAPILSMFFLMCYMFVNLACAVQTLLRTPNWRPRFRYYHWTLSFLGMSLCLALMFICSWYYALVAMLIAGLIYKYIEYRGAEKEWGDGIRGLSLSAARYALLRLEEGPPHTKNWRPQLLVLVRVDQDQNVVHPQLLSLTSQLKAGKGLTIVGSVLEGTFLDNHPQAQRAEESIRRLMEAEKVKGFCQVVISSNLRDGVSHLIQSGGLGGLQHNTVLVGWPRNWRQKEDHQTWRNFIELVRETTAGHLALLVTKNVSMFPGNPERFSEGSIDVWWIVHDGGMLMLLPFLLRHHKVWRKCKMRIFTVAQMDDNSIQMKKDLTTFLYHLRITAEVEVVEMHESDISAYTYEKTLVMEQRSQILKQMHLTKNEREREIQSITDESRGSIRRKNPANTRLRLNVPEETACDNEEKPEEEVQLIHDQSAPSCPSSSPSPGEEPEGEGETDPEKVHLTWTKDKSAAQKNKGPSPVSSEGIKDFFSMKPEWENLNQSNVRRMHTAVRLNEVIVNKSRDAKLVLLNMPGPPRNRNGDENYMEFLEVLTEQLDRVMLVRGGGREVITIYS
Assay: Quantum dot-based single particle tracking of KCC2 membrane lateral diffusion
Type: cell-based
Conditions: vs DMSO
Procedure: For all experiments on hippocampal cultures, neurons were pre-incubated for 2 hours with either DMSO, PCPZ or CLP257 in a CO2 incubator set at 37° C. Drugs were added directly to the culture medium. For electrophysiology experiments, neurons were also recorded in presence of these drugs in the bath. For biochemistry experiments on rat hippocampo-cortical slices, slices were incubated with either DMSO (vehicle), CLP257, PCPZ, WNK463 or sodium orthovanadate for 2 hours in interface chambers set at 37° C. For human tissue experiments, slices were pre-incubated with either DMSO, CLP257 or PCPZ for 2 hours in interface chambers set at 37° C. and then also recorded in presence of these compounds.
For single-particle-tracking experiments, a previously described KCC2-Flag construct was used. […] All constructs were sequenced by Beckman Coulter Genomics (Hope End, Takeley, U.K). Neuronal transfections were performed at DIV 13-14 using Transfectin (BioRad), according to manufacturer's instructions (DNA:transfectin ratio 1 μg:3 μl), with 1-1.5 μg of plasmid DNA per 20 mm well. Experiments were performed 7-10 days post-transfection.
Neurons were stained as previously described. Briefly, cells were incubated for 6 min at 37° C. with a mouse anti-Flag antibody (mouse, 1:300, Sigma-Aldrich), washed and incubated for 6 min at 37° C. with a biotinylated Fab goat anti-mouse antibody (1:300; Jackson Immuno Research) in imaging medium. After washes, cells were incubated for 1 min with streptavidin-coated quantum dots (QDs) emitting at 655 nm (1 nM; Invitrogen) supplemented with PBS ([…]; Invitrogen) and 10% Casein (v/v) (Sigma).
Cells were imaged using an Olympus IX71 inverted microscope equipped with a 60× objective (NA 1.42; Olympus) and a 120 W Mercury lamp (X-Cite 120Q, Lumen Dynamics). QD real time recordings (integration time of 30 ms over 1200 consecutive frames) were acquired with an ImagEM EMCCD camera and MetaView software (Meta Imaging 7.7). Cells were imaged within 45 min following appropriate drugs pre-incubation.
QD tracking and trajectory reconstruction were performed with homemade Matlab routines, as described. For each imaged neuron, one or two dendritic subregions were quantified. Mean square displacement (MSD) over time plots were calculated as described and diffusion coefficients (D) were calculated by fitting the first four points without origin of the MSD vs. time curves with the equation: MSD(nτ)=4Dnτ+b, where b is a constant reflecting the spot localization accuracy. The explored area of each trajectory was defined as the MSD value of the trajectory at two different time intervals of at 0.42 and 0.45 s.

change of KCC2 diffusion coefficient, extrasynaptic (10 μM PCPZ, 2 h) [%] | change of KCC2 diffusion coefficient, synaptic (10 μM PCPZ, 2 h) [%] | change of KCC2 explored area, extrasynaptic (10 μM PCPZ, 2 h) [%] | change of KCC2 explored area, synaptic (10 μM PCPZ, 2 h) [%] | change of KCC2 diffusion coefficient, extrasynaptic (100 μM CLP257, 2 h) [%] | change of KCC2 diffusion coefficient, synaptic (100 μM CLP257, 2 h) | change of KCC2 explored area, extrasynaptic (100 μM CLP257, 2 h) [%] | change of KCC2 explored area, synaptic (100 μM CLP257, 2 h) | Compound
−36.54±14.91 | −26.22±14.00 | −39.70±17.18 | −30.632±25.44 | – | – | – | – | CN1CCN(CCCN2c3ccccc3Sc3ccc(Cl)cc32)CC1 [PCPZ, prochlorperazine]
– | – | – | – | −20.74±4.85 | +9.39±11.21% | −25.14±2.73 | +4.93±19.40% | O=C1N=C(N2CCCCN2)S/C1=C\c1ccc(F)cc1O [CLP257, (5Z)-5-[(4-Fluoro-2-hydroxyphenyl)methylene]-2-(tetrahydro-1-(2H)-pyridazinyl)-4(5H)-thiazolone]
